From patent publication EP1332762A1, “Method of treating hyperprolactinemia and prolactinomas” (Cedars-Sinai Medical Center, priority 1997, dated 1998)
Positions of bridges follow the written chain, without caps; N, C: chain ends. Non-standard residues stand in square brackets, D forms with d. Residues, ends and D or L forms follow the SMILES beside them.

Assays:
[1] = tested on: Cells derived from six prolactin-secreting pituitary adenomas; test: Reduction of prolactin secretion from cultured prolactinoma cells (PRL by immunoradiometric assay); assay type: cell-based, human; details: for effect on prolactin release: adenomatous cell cultures of tumor 1; for effect on prolactin release / suppressed prolactin release: 10-100 nM; for effect on prolactin release / suppressed prolactin secretion / suppressed prolactin release: 3 hours; for effect on prolactin release / response of prolactin secretion / effect on prolactin production: result in words; for suppressed prolactin secretion: cell cultures from tumor 1; for response of prolactin secretion: cells of the four large male tumors (tumors 1-4); for suppressed prolactin release / effect on prolactin production: large tumor 4 cell cultures
hSSTR-1 = hSSTR-1 (Homo sapiens, UniProt P30872); test: Somatostatin receptor binding assay ([125I-Tyr11]somatostatin-14, membranes of transfected CHO-K1 cells); details: radioligand 0.05 nM, 30 min at 30 °C
hSSTR-2 = hSSTR-2 (Homo sapiens, UniProt P30874); test: as above; details: radioligand 0.05 nM, 30 min at 30 °C
hSSTR-3 = hSSTR-3 (Homo sapiens, UniProt P32745); test: as above; details: radioligand 0.05 nM, 30 min at 30 °C
hSSTR-4 = hSSTR-4 (Homo sapiens, UniProt P31391); test: as above; details: radioligand 0.05 nM, 30 min at 30 °C
hSSTR-5 = hSSTR-5 (Homo sapiens, UniProt P35346); test: as above; details: radioligand 0.05 nM, 30 min at 30 °C
hSSTR-5, sequence (P35346 whole entry): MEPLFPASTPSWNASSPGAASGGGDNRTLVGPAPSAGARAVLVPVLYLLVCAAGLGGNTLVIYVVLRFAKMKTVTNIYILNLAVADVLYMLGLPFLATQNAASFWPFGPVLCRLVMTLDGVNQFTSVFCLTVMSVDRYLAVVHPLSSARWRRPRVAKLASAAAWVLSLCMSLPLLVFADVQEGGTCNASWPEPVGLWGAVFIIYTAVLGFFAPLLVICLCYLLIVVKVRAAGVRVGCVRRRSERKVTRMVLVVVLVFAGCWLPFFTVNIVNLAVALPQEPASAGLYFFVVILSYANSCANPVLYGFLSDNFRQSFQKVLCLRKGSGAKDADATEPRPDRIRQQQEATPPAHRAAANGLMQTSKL

hSSTR-2, sequence (P30874 whole entry): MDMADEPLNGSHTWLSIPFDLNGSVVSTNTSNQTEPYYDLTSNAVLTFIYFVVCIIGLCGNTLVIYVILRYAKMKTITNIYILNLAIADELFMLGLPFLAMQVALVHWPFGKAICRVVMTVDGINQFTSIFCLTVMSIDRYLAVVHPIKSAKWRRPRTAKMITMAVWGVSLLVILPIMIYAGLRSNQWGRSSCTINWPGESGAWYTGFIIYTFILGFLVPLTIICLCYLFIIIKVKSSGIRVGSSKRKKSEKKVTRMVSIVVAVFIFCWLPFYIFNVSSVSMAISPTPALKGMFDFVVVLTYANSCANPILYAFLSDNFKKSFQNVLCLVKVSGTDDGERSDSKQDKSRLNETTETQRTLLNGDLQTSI
hSSTR-4, sequence (P31391 whole entry): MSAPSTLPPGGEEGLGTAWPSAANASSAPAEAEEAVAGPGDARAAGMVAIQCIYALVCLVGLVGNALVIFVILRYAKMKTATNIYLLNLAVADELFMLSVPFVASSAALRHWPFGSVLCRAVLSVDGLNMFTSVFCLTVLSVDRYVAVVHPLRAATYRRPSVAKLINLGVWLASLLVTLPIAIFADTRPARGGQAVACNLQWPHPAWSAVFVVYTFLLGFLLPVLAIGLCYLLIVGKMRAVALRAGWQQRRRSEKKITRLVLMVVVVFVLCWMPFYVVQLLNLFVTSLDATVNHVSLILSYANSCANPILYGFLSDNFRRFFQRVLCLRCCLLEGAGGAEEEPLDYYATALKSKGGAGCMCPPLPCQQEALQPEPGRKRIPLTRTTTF
hSSTR-1, sequence (P30872 whole entry): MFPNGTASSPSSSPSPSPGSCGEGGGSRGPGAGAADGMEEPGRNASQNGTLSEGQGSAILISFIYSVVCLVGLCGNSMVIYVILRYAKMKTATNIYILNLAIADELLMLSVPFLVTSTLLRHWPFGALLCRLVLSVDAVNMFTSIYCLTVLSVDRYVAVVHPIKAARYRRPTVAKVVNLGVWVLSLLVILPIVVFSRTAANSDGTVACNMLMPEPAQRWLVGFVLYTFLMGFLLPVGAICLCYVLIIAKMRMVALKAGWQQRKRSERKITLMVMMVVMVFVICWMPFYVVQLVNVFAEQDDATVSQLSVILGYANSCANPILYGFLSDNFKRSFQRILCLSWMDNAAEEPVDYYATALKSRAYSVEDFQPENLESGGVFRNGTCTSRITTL
hSSTR-3, sequence (P32745 whole entry): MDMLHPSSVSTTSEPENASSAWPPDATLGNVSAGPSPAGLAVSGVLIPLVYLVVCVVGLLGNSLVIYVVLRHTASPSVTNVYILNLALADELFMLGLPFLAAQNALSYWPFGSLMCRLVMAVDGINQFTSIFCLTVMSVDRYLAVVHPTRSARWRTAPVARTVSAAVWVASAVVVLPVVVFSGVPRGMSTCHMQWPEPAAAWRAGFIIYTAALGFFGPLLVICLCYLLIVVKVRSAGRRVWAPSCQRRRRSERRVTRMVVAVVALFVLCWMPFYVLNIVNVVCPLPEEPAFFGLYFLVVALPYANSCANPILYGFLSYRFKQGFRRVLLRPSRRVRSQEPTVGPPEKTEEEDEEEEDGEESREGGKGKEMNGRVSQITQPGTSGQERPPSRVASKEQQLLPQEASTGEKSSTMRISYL

## CC[C@@H]1NC(=O)[C@H](CCCCN)NC(=O)[C@@H](Cc2c[nH]c3ccccc23)NC(=O)[C@H](Cc2ccc(O)cc2)NC(=O)[C@@H](NC(=O)[C@H](N)Cc2ccccc2)CSSC[C@@H](C(=O)N[C@H](C(N)=O)[C@@H](C)O)NC1=O [BIM-23023]
[1]
  effect on prolactin release: did not affect prolactin release

## C[C@@H](O)[C@@H]1NC(=O)[C@H](CCCCN)NC(=O)[C@@H](Cc2c[nH]c3ccccc23)NC(=O)[C@H](Cc2ccccc2)NC(=O)[C@H](Cc2ccccc2)NC(=O)[C@@H](N)CSSC[C@@H](C(N)=O)NC(=O)[C@H](Cc2ccccc2)NC1=O [BIM-23268] (H-CFF[dW]KTFC-NH2; disulfide 1-8)
[1]; 10 nM, p<0.05
  suppressed prolactin secretion: 36%
[1]
  response of prolactin secretion: suppression of prolactin secretion
[1]; large tumor 3 cell cultures, 10 nM and 100 nM, dose dependent, p<0.05
  suppressed prolactin: up to 29%
[1]; p<0.05
  suppressed prolactin release: more than 30%
[1]; tumor 2 cell cultures, 10 nM, versus controls, p<0.0005
  Prolactin release inhibited: 38%

## C[C@@H](O)[C@H](NC(=O)[C@H](Cc1ccccc1)NC(=O)[C@@H](NC(=O)[C@H](CCCCN)NC(=O)[C@@H](Cc1c[nH]c2ccccc12)NC(=O)[C@H](Cc1ccccc1)NC(=O)[C@H](Cc1ccccc1)NC(=O)[C@H](N)Cc1ccccc1)[C@@H](C)O)C(N)=O [BIM-23052, H-D-Phe-Phe-Phe-D-Trp-Lys-Thr-Phe-Thr-NH2] (H-[dF]FF[dW]KTFT-NH2)
hSSTR-1
  Ki: 97.6 nM
hSSTR-2
  Ki: 12 nM
hSSTR-3
  Ki: 5.6 nM
hSSTR-4
  Ki: 127 nM
hSSTR-5
  Ki: 1.22 nM
[1]; 10 nM, p<0.05
  suppressed prolactin secretion: 33%
[1]
  response of prolactin secretion: suppression of prolactin secretion
[1]; p<0.05
  suppressed prolactin release: more than 30%

## C[C@@H](O)[C@@H]1NC(=O)[C@H](CCCCN)NC(=O)[C@@H](Cc2c[nH]c3ccccc23)NC(=O)[C@H](Cc2ccccc2)NC(=O)[C@@H](NC(=O)[C@H](N)Cc2ccccc2)CSSC[C@@H](C(=O)N[C@H](CO)[C@@H](C)O)NC1=O [Octreotide]
[1]
  response of prolactin secretion: failed to respond

## CC[C@@H]1NC(=O)[C@H](CCCCN)NC(=O)[C@@H](Cc2c[nH]c3ccccc23)NC(=O)[C@H](Cc2ccc(O)cc2)NC(=O)[C@@H](NC(=O)[C@@H](Cc2ccccc2)NC(=O)CN2CCN(CCO)CC2)CSSC[C@@H](C(=O)N[C@H](C(N)=O)[C@@H](C)O)NC1=O [BIM-23190]
[1]
  effect on prolactin release: did not affect prolactin release
  response of prolactin secretion: failed to respond
  effect on prolactin production: modestly stimulated prolactin production

## CC(C)[C@@H]1NC(=O)[C@H](CCCCN)NC(=O)[C@@H](Cc2c[nH]c3ccccc23)NC(=O)[C@H](Cc2ccc(O)cc2)NC(=O)[C@@H](NC(=O)[C@H](N)Cc2ccc3ccccc3c2)CSSC[C@@H](C(=O)N[C@H](C(N)=O)[C@@H](C)O)NC1=O [Lanreotide]
hSSTR-2
  Ki: 0.75 nM
[1]
  effect on prolactin release: did not affect prolactin release
  response of prolactin secretion: failed to respond

## CC[C@@H]1NC(=O)[C@H](CCCCN)NC(=O)[C@@H](Cc2c[nH]c3ccccc23)NC(=O)[C@H](Cc2ccc(O)cc2)NC(=O)[C@@H](NC(=O)[C@@H](Cc2ccccc2)NS(=O)(=O)CCN2CCN(CCO)CC2)CSSC[C@@H](C(=O)N[C@H](C(N)=O)[C@@H](C)O)NC1=O [BIM-23197]
[1]
  effect on prolactin release: did not affect prolactin release
  response of prolactin secretion: failed to respond
  effect on prolactin production: modestly stimulated prolactin production
